{"source": "paper PMC10783051", "about": "(Microbiology Spectrum, 2023)", "key": {"[1]": {"test_system": "Streptomyces venezuelae ATCC 10712", "experiment": "Confrontation assay B. velezensis GA1 / S. venezuelae on REM plate, UPLC-MS metabolite profiling of the agar", "method": "Confrontation assays were performed on square Petri dishes (12 × 12 cm) with 40 mL of REM solid medium at 26°C (REM supplemented with 14 g/L of agar).\nS. venezuelae ATCC 10712 was inoculated as stripes (1 × 12 cm) in the middle of the plate with 40 µL of spore suspension (10^7 spores/mL) and spread with a cotton swab. Next, B. velezensis GA1 cells were collected from fresh precultures as described and adjusted to OD600 nm 0.1. Then, 5 µL of B. velezensis GA1 suspension was spotted at 1 cm of the Streptomyces line. Control plates were done following the same procedure without the inoculation of either Bacillus or Streptomyces. Plates were then incubated for 3 days at 26°C in the dark. Pictures of the plates were then captured using a CoolPix camera (NIKKOR ×60 wide optical zoom extra-low dispersion vibration reduction 4.3–258.0 mm 1:33 to 6.5).\nThe extraction of the metabolites from the agar was performed as follows. For the confrontation experiment, we precisely sampled the area of agar (2 × 1 cm) near the colony of Bacillus or Streptomyces (the confrontation zone is 1 cm wide) with standardized plugs. For the in planta, we sampled the agar area (1 × 1 cm) near the tomato roots. In both cases, the agar samples were transferred to Eppendorf tubes and placed for 24 h at −20°C. Then, the agar was thawed at room temperature and centrifuged for 10 min at 13,000 rpm. The supernatants were then collected and filtered (0.22-µm pore size filters) before UPLC-MS analysis.\nAll UPLC-MS analyses were performed using an Agilent 1290 Infinity II coupled with a diode array detector and a mass detector (Jet Stream ESI-Q-TOF 6530) in positive mode with the parameters set up as follows: capillary voltage of 3.5 kV, nebulizer pressure of 35 lb/in^2, drying gas of 8 L/min, drying gas temperature of 300°C, flow rate of sheath gas of 11 L/min, sheath gas temperature of 350°C, fragmentor voltage of 175 V, skimmer voltage of 65 V, and octopole radiofrequency of 750 V. Accurate mass spectra were recorded in the m/z range of 300–1,700. For untargeted MS/MS, we used the same MS1 parameters as described. We added MS2 untargeted acquisition mode with the parameters as follows: MS/MS range 50–1,700 m/z; MS/MS scan rate 3 spectra/s; isolation width MS/MS medium (approx. 4 AMU), Decision Engine Native; fixed collision energies of 25 and 40 V for surfactin, 50 V for iturin, and 60 V for fengycin experiments; precursor selection: three for the surfactin experiment, four for the iturin and fengycin experiments, threshold 1,500 (Abs), isotope model common, active exclusion after two spectra and release after 0.5 min, sorting the precursors by charge state then abundance (charge state preference 1). For targeted MS/MS, we used the same MS1 parameters MS/MS range of 50–1,700 m/z or 50–3,200 (when required for Pseudomonas CLPs with mass >1,700 Da), MS/MS scan rate 3 spectra/s, isolation width MS/MS narrow (approx. 1.3 amu), and fixed collision energies 20, 40, and 60V. In all experiments, a C18 Acquity UPLC ethylene bridged hybrid column (2.1 mm × 50 mm × 1.7 µm; Waters Corporation, Milford, MA, USA) was used at a flow rate of 0.6 mL/min and a temperature of 40°C. The injection volume was 20 µL, and the diode array detector scanned a wavelength spectrum between 190 and 600 nm. Unless otherwise mentioned, a gradient of acidified water (0.1% formic acid) (solvent A) and of acidified acetonitrile (0.1% formic acid) (solvent B) was used as mobile phase with a constant flow rate of 0.6 mL/min, starting at 10% B and rising to 100% B in 20 min. Solvent B was kept at 100% for 4 min before going back to the initial ratio. MassHunter Workstation (version 10.0) and ChemStation software were used for data collection and analysis. For untargeted analysis of iturin and fengycin degradation products, we used the same solvent and flow rate, starting at 10% B to 20% in 2 min, then rising to 50% B at 14 min and 100% B at 25 min, followed by 100% B and 5 at 10% B at 6 min."}, "[2]": {"test_system": "Streptomyces venezuelae ATCC 10712", "experiment": "In planta co-inoculation on tomato roots, UPLC-MS of rhizosphere extracts", "settings": "tomato roots on Hoagland agar, 7 days at 22°C, UPLC-MS of agar near the roots, four biological replicates", "method": "For the in planta studies, tomato seeds (Solanum lycopersicum var. Moneymaker) were sterilized following the protocol described by ([26]). Briefly, tomato seeds were primarily sterilized in 70% ethanol (vol/vol) by gently shaking for 2 min. Further, the ethanol was removed and the seeds were added to 50 mL of the sterilization solution [4.5 mL of bleach containing 9.5% (vol/vol) of active chlorine, 0.01 g of Tween 80, and 45.5 mL of sterile water] and gently shaken for 10 min. Seeds were thereafter washed 10 times with water to eliminate sterilization solution residues. […]\nAll UPLC-MS analyses were performed using an Agilent 1290 Infinity II coupled with a diode array detector and a mass detector (Jet Stream ESI-Q-TOF 6530) in positive mode with the parameters set up as follows: capillary voltage of 3.5 kV, nebulizer pressure of 35 lb/in^2, drying gas of 8 L/min, drying gas temperature of 300°C, flow rate of sheath gas of 11 L/min, sheath gas temperature of 350°C, fragmentor voltage of 175 V, skimmer voltage of 65 V, and octopole radiofrequency of 750 V. Accurate mass spectra were recorded in the m/z range of 300–1,700. […]"}, "Streptomyces": {"test_system": "Streptomyces", "settings": "cited from earlier work", "from_the_text": "As soils are carbon-rich and nitrogen-poor environments, exogenous CLP degradation may thus represent a foraging strategy for Streptomyces to access alternative sources of nutriments directly emanating from diverse microbial competitors. We assume that, in this ..."}, "tobacco cells": {"test_system": "tobacco cells", "settings": "cited from earlier work", "from_the_text": "Additionally, CLPs are key multifunctional BSMs whose biocontrol-associated activities often involve membrane perturbation and pore formation ([16]). This CLP-membrane interaction is enabled by the peculiar amphiphilic three-dimensional structures of those CLPs ([17], [18]). However, since the degradation alters their structures, it is likely associated with a loss of function. […] Likewise, linearization of su ..."}}, "data": [{"substance": "surfactin", "values": [{"measurement": "abundance of the CLP in the confrontation zone compared with monocultures", "setting": "[1]", "value": "decrease in the abundance"}, {"measurement": "shorter CLP fragment detected in the confrontation zone but not in Bv monoculture", "setting": "[1]", "value": "loss of the fatty acid from the linear form"}, {"measurement": "linear forms in rhizosphere extracts upon co-inoculation of Bv with Sv", "setting": "[2]", "value": "high proportion of linear"}, {"measurement": "effect on aerial mycelium formation of Streptomyces", "setting": "Streptomyces", "value": "inhibitory effect"}, {"measurement": "effect of linearization on the potential to stimulate immune-related defense responses", "setting": "tobacco cells", "value": "almost full loss"}]}]}
